Legend:
[1] = test system: Lactobacillus bifidus; test: Effect on the intestinal bacterial colonies: number of Lactobacillus bifidus in feces; assay type: in vivo, Lactobacillus bifidus (feces of female ICR mice); details: oral, 500 mg/kg/day for 2 days; feces one day after administration; before administration 8.0
Method: (§1) After collecting the feces of a group of mice, each of the compounds represented by the formula (I) was orally administered to each of the group for 2 continued days at a daily dose rate of 500 mg per kg body weight, and the feces were again collected one day after the administration. Each portion of the thus collected, two kinds of the feces was cultured at 25° C. or 37° C. in a variety of culture media for one to five days to see the state of growth of the following bacteria which are present habitually in the intestine of the mouse: Escherichia coli, Pseudomonas aeruginosa, a streptococcus bacterial species, a lactobacillis bacteria, Lactobacillus bifidus and a bacterioides bacteria.
(§2) Each of the compounds, respectively produced in Examples 1 to 6 was orally administered for two continued days at a daily dosage of 500 mg/kg body weight to each of five female ICR mice of a group after 6 weeks of birth.
(§3) Each of the two fecal specimens respectively collected before and after one day of the administration was diluted with 100 times by weight of an anaerobic diluent (a phosphoric buffer solution) and was ground in a mortar, and 0.1 ml of the ground material was smeared on each of the following culture media for the following bacteria and the thus inoculated culture media were incubated under the following conditions. Thereafter, the number of the following bacteria was determined on each culture medium.
BS agar 37° C., for 5 days, […]

[2] = test system: Staphylococcus aureus IAM 1011; test: Anti-bacterial activity, agar plate dilution method (MIC), Staphylococcus aureus; assay type: cell-based; details: Mueller-Hinton agar, 18 to 24 hours, 37° C.
Method: (§4) 3-1: The minimum growth-inhibiting concentration (MIC) of each of the compounds represented by the formula (I) was measured according to the standard procedures of Japan Society of Chemotherapy against each of the following bacterial species:
Staphylococcus aureus, IAM 1011
(§5) Anti-bacterial activity of each of the compounds produced in Examples 1 to 6 was measured according to the standard procedures of Japan Society of Chemotherapy in agar plate dilution method as follows:
(§6) As a test bacterial species, Escherichia coli IFO 12734 and Staphylococcus aureus IAM 1011, and each strain was inoculated into Mueller-Hinton's culture medium for 18 to 48 hours at 37° C., and while using the thus cultured bacteria, each of the test bacterial liquid containing 10^6 cells in one ml was prepared.
(§7) Separately, after preparing each series of diluted aqueous solutions of each of the compounds produced in Examples 1 to 6, respectively, each of them was mixed in amount of 1/9 time by weight with the Mueller-Hinton's culture medium and each flat agar culture plate was prepared by using the thus formed mixture.

[3] = test system: A species of Bacterioides; test: Effect on the intestinal bacterial colonies: number of a species of Bacterioides in feces; assay type: in vivo, Bacteroides (feces of female ICR mice); details: oral, 500 mg/kg/day for 2 days; feces one day after administration; before administration 8.1
Method: as §1, §2, §3
a species of NBGT agar 37° C., for 5 days,7 -Bacteroides anaer

[4] = test system: A species of Streptococcus; test: Effect on the intestinal bacterial colonies: number of a species of Streptococcus in feces; assay type: in vivo, Streptococcus (feces of female ICR mice); details: oral, 500 mg/kg/day for 2 days; feces one day after administration; before administration 6.4
Method: as §1, §2, §3
a species of TATAC agar 37° C., for 1 day, […]

[5] = test system: Staphylococcus aureus IAM 1011; test: Model test for verifying the activation in living body: growth-inhibition circle with/without rat liver S-9 mix; assay type: cell-based; details: 20 min at 37° C., then 18 hours at 37° C.; for Sign: diameter of growth-inhibiting circle as percentage of that due to compound of formula (II), with the addition of S-9 mix: with the addition of S-9 mix (rat liver homogenate)
Method: On each flat culture plate prepared by adding 10^8 cells/ml of a preliminarily cultured Staphylococcus aureus IAM 1011 into 50 times by weight of Mueller-Hinton's agar culture medium, a penicillin cup of 8 mm in diameter was placed, and into each cup 0.1 ml of each of the compounds represented by the formula (I) or 0.1 ml of a cultured product of each of the compounds represented by the formula (I) together with a rat liver homogenate (containing a metabolism-activating enzyme, referred to as S-9 mix) was introduced. The diameter of each growth-inhibition circle formed around the cup after incubating the flat culture plate with the cup for 18 hours at 37° C. was measured, and the thus obtained value was compared to the value obtained by the same procedures except for using the compound represented by the formula (II), the starting compound instead of each of the compounds represented by the formula (I).
As a metabolism-activating enzyme, a rat liver homogenate (S-9, manufactured by Oriental Yeast Co.) was used in the following composition (referred to as S-9 mix, hereinafter):
After mixing 0.1 ml of a solution of the compound to be tested with 0.9 ml of S-9 mix or 0.9 ml of 0.1M phosphoric acid buffer solution, the mixture was subjected to shaking culture for 20 min at 37° C. to prepare a test reaction solution for use in the following experiment.
Staphylococcus aureus IAM 1011 was inoculated to Mueller-Hinton's culture medium and the inoculum was cultured for 18 hours at 37° C. and after adjusting the number of the bacterial cells to 10^8 /ml of the culture medium, 50 times by weight of the Mueller-Hinton's agar culture medium were added to the cultured medium to prepare flat culture plates.
After placing a penicillin-cup of 8 mm in diameter on each of the thus prepared flat culture plates, 0.1 ml of the above-mentioned test reaction solution was introduced into the penicillin-cup, and after leaving the system for 2 hours at 4° C., the system was incubated for 18 hour at 37° C., and the diameter of the growth-inhibition circle around the cup on the culture plate was determined.
The thus obtained diameter of the growth-inhibiting circle due to each of the compounds produced respectively in Examples 1 to 6 was compared to that due to the compound repesente by the formula (II), substituted cephalosporanic acid by percentage, and the following signs were respectively given to the respective compounds as follows: […]

[6] = test system: Escherichia coli; test: Effect on the intestinal bacterial colonies: number of Escherichia coli in feces; assay type: in vivo, Escherichia coli (feces of female ICR mice); details: oral, 500 mg/kg/day for 2 days; feces one day after administration; before administration 7.0
Method: as §1, §2, §3
DHL agar 37° C., for 1 day, […]

[7] = test system: Pseudomonas aeruginosa; test: Effect on the intestinal bacterial colonies: number of Pseudomonas aeruginosa in feces; assay type: in vivo, Pseudomonas aeruginosa (feces of female ICR mice); details: oral, 500 mg/kg/day for 2 days; feces one day after administration; before administration <3.0
Method: as §1, §2, §3
NAC agar 37° C., for 1 day, […]

[8] = test system: Escherichia coli IFO 12734; test: Effectiveness in treating experimental infectious disease, Escherichia coli; assay type: in vivo, mice (ddY-SPF) infected with Escherichia coli; details: of 20 mice; 1.4×10^8 cells i.p.; 500 mg/kg orally two times, just after and after 4 hours; all untreated died on second day
Method: (§8) Each of 20 mice of a group was infected by intraperitoneal inoculation of Escherichia coli IFO 12734 or Staphylococcus aureus IAM 1011, and just after or after 4 hours of the inoculation, each of the compounds represented by the formula (I) was orally administered to the inoculated mouse at a dose rate of 500 mg/kg body weight.
(§9) Cells in number of 1.4×10^8 of Escherichia coli IFO 12734 were intraperitoneally inoculated to each of 40 ddY-SPF mice, and each of 20 mice of the 40 mice was administered two times just after and after 4 hours of the inoculation with each 500 mg of the compound produced in Example 4 per kg of body weight orally, and the other 20 mice were kept untreated.

[9] = test system: Staphylococcus aureus IAM 1011; test: Effectiveness in treating experimental infectious disease, Staphylococcus aureus; assay type: in vivo, mice (ddY-SPF) infected with Staphylococcus aureus; details: of 20 mice; 2.3×10^8 cells i.p.; 500 mg/kg orally two times; all untreated died on second day
Method: as §8, §9
Quite the same experiments as in (10-1) except for intraperitoneously inoculating Staphylococcus aureus IAM 1011 in number of 2.3×10^8instead of 1.4×10^8 cells of E. coli was carried out by administering two times with each 500 mg of the compound produced in Example 4. As a result, all the 20 mice inoculated and not administered died on the second day of inoculation, however, more than 70% of the inoculated and administered 20 mice were alive even on the 7th day of inoculation.

[10] = test system: Escherichia coli IFO 12734; test: Anti-bacterial activity, agar plate dilution method (MIC), Escherichia coli; assay type: cell-based; details: Mueller-Hinton agar, 18 to 24 hours, 37° C.
Method: as §4
Escherichia coli, IFO 12734 and
as §5, §6, §7

[11] = test system: A species of Lactobacillus; test: Effect on the intestinal bacterial colonies: number of a species of Lactobacillus in feces; assay type: in vivo, Lactobacillus (feces of female ICR mice); details: oral, 500 mg/kg/day for 2 days; feces one day after administration; before administration 9.0
Method: as §1, §2, §3
a species of LBS agar 37° C., for 5 days, […]

| SMILES | Log10 value of the number of bacterial cells/g of feces, Lactobacillus bifidus [1] | Minimum concentration of inhibiting growth of Staphylococcus aureus (MIC) [2] [microgram/ml] | Log10 value of the number of bacterial cells/g of feces, a species of Bacterioides [3] | Log10 value of the number of bacterial cells/g of feces, a species of Streptococcus [4] | Sign: diameter of growth-inhibiting circle as percentage of that due to compound of formula (II), with the addition of S-9 mix [5] | Sign: diameter of growth-inhibiting circle as percentage of that due to compound of formula (II), without adding S-9 mix [5] | Log10 value of the number of bacterial cells/g of feces, Escherichia coli [6] | Log10 value of the number of bacterial cells/g of feces, Pseudomonas aeruginosa [7] | mice alive on the 7th day of inoculation [8] | inoculated and administered mice alive on the 7th day of inoculation [9] | Minimum concentration of inhibiting growth of Escherichia coli (MIC) [10] [microgram/ml] | Log10 value of the number of bacterial cells/g of feces, a species of Lactobacillus [11] |
| --- | --- | --- | --- | --- | --- | --- | --- | --- | --- | --- | --- | --- |
| COC(=O)CNC(=O)c1ccc(NC(=O)C2=C(CSc3nnnn3C)CSC3N2C(=O)C3(NC(=O)CSCC#N)OC)cc1 (stereo not drawn) [Example 4, N-(4-carbomethoxymethylcarbamoylphenyl)-{7-beta-cyanomethylthioacetamido-7-alpha-methoxy-3-[(1-methyl-1H-tetrazol-5-yl)thio]methyl-3-cepheme-4-carboxylic}amide] | 7.9 Log10 cells/g of feces | ≥ 100 | 8.3 Log10 cells/g of feces | 5.9 Log10 cells/g of feces | + (1 to 33) | - (0) | 7.0 Log10 cells/g of feces | < 3.0 Log10 cells/g of feces | more than 16 mice | more than 70% | ≥ 100 | 9.3 Log10 cells/g of feces |
| COC1(NC(=O)CSCC#N)C(=O)N2C(C(=O)Nc3ccc(C)cc3)=C(CSc3nnnn3C)CSC21 (stereo not drawn) [Example 6, N-(4-methylphenyl)-{7-beta-cyanomethylthioacetamido-7-alpha-methoxy-3-[(1-methyl-1H-tetrazol-5-yl)thio]methyl-3-cepheme-4-carboxylic}amide] | 8.0 Log10 cells/g of feces | ≥ 100 | 8.0 Log10 cells/g of feces | 6.3 Log10 cells/g of feces | + (1 to 33) | - (0) | 6.9 Log10 cells/g of feces | < 3.0 Log10 cells/g of feces |  |  | ≥ 100 | 9.2 Log10 cells/g of feces |
